# Data published in BindingDB's records for doi:10.1124/jpet.104.065391 (University of Arizona, 2004).
# Where a SMILES comes first, the peptide text is derived from it. [ ]: non-standard residue; d: D form. dNle = CCCC[C@@H](N)C(=O)O
# What was measured:
# Mu-type opioid receptor = Mu-type opioid receptor (Homo sapiens, UniProt P35372)
# [1] = target: Kappa-type opioid receptor (Homo sapiens, UniProt P41145)
# Chain of Kappa-type opioid receptor (P41145 whole entry): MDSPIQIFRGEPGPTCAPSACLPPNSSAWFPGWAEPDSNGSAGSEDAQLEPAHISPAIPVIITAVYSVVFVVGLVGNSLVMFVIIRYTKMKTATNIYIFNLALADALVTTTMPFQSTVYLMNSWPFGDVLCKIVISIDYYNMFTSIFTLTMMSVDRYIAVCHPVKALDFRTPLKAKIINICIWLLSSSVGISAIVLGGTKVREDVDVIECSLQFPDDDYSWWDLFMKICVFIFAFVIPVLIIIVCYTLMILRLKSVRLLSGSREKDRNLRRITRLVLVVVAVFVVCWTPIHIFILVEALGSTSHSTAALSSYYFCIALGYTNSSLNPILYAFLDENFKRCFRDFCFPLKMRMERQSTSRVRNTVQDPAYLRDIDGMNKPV
# Chain of Mu-type opioid receptor (P35372 whole entry): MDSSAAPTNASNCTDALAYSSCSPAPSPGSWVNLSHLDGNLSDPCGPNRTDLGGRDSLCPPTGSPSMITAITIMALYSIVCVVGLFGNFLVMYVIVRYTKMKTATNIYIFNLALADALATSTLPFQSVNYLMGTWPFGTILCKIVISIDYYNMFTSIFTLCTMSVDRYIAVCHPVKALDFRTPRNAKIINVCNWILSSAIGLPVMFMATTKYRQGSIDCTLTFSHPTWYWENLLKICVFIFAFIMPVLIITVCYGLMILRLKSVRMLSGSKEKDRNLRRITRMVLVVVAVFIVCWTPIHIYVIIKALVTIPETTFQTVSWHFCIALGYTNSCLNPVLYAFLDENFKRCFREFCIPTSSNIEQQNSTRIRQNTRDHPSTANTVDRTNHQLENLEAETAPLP
smiles,measurement,setting,value
CCCC[C@@H](NC(=O)[C@@H](Cc1ccccc1)NC(=O)[C@H](N)Cc1ccccc1)C(=O)N[C@H](CCCNC(=N)N)C(N)=O [d-Phe-d-Phe-d-Nle-d-Arg-NH2] (H-[dF][dF][dNle][dR]-NH2),Ki,Mu-type opioid receptor,4.57 µM
same,Ki,[1],0.000146 µM
